Reference: patent US12059425B2, “Heterocyclic compounds and uses thereof” (Kumquat Biosciences Inc., priority 2022, dated 2024)

Columns and labels:
[1] = target: T1, K-Ras G12D (Homo sapiens, UniProt P01116, G12D); experiment: PPI-HTRF assay, K-Ras G12D / SOS1 interaction; format: biochemical; conditions: HTRF, K-Ras G12D; read-out: PPI-HTRF-5 nM (K-Ras G12D IC50)
T1 construct: made in house; host or cells: E. coli, e.g. BL21 (DE3)
How it was run: (§1)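 Disruption of K-Ras–SOS1 binding is followed by FRET between a europium-labelled anti-GST antibody on GST-K-Ras and an XL665-labelled anti-His antibody on His-hSOS1. Protein concentrations are set in the same molar range as the IC50s measured. The 665/620 nm ratio gives IC50, with duplicates tested at 10, 2.5, 0.63, 0.16, 0.04 and 0.01 μM.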

[2] = target: T2, K-Ras G12S (Homo sapiens, UniProt P01116, G12S); experiment: PPI-HTRF assay, K-Ras G12S / SOS1 interaction; format: biochemical; conditions: read-out: PPI-HTRF-5 nM (K-Ras G12S IC50)
T2 construct: made in house; host or cells: E. coli, e.g. BL21 (DE3)
How it was run: as §1

[3] = target: T3, K-Ras G12V (Homo sapiens, UniProt P01116, G12V); experiment: PPI-HTRF assay, K-Ras G12V / SOS1 interaction; format: biochemical; conditions: HTRF, K-Ras G12V; read-out: PPI-HTRF-5 nM (K-Ras G12V IC50)
T3 construct: made in house; host or cells: E. coli, e.g. BL21 (DE3)
How it was run: as §1

[4] = target: T4, wildtype K-Ras (Homo sapiens, UniProt P01116); experiment: PPI-HTRF assay, wildtype K-Ras / SOS1 interaction; format: biochemical; conditions: HTRF, K-Ras wt; read-out: PPI-HTRF-5 nM (K-Ras wt IC50)
T4 construct: made in house; host or cells: E. coli, e.g. BL21 (DE3)
How it was run: as §1

[5] = system: GP2D cells; experiment: Ras cellular assay, cell proliferation GP2D; format: cell-based
Protocol: (§2) For example, this assay can be also used to assess selective growth inhibition of a mutant Ras protein relative to a wildtype, or relative to a different mutant Ras protein.
ASPC-1 (ATCC CRL-1682), Panc-10.05 (ATCC CRL-2547), A427, GP2d cell lines or any other cell lines comprising a G12D mutation can be used to assess Ras cellular signaling in vitro, e.g., in response to a compound described herein. For example, ASPC-1 culture medium is prepared with RPMI-1640 and 10% heat-inactivated FBS. Panc-10.05 culture medium is prepared with RPMI-1640, 10 Units/mL human recombinant insulin, and 10% FBS. A427 cell culture is prepared with RPMI-1640 and 10% heat-inactivated FBS. A CellTiter-Glo (CTG) luminescent based assay (Promega) is used to assess growth of the cells, as a measurement of the ability of the compounds herein to inhibit Ras signaling in the cells. The cells (e.g., 800 per well) are seeded in their respective culture medium in standard tissue culture-treated 384-well format plates (Falcon #08-772-116) or ultra-low attachment surface 384-well format plates (S-Bio #MS-9384UZ). The day after plating, cells are treated with a dilution series (e.g., a 9 point 3-fold dilution series) of the compounds herein (e.g., approximately 40 μL final volume per well). Cell viability can be monitored (e.g., approximately 5 days later) according to the manufacturer's recommended instructions, where the CellTiter-Glo reagent is added (e.g., approximately 10 μL), vigorously mixed, covered, and placed on a plate shaker (e.g., approximately for 20 min) to ensure sufficient cell lysis prior to assessment of luminescent signal. The IC50 values are determined using the four parameter fit. The resulting IC50 value is a measurement of the ability of the test compound to reduce cell growth of Ras-driven cells (e.g., tumor cell lines) in vitro and/or in vivo.

[6] = system: A549 cells; experiment: Ras cellular assay, cell proliferation A549; format: cell-based; conditions: Homo sapiens
Protocol: as §2
A549 (ATCC CRL-185) and LS123 (ATCC CRL-255) cell lines comprise a G12S mutation and can be used to assess Ras cellular signaling in vitro, e.g., in response to treatment with a compound described herein. A549 culture medium is prepared with RPMI-1640 and 10% heat-inactivated FBS. LS123 culture medium is prepared with RPMI-1640 and 10% heat-inactivated FBS. A CellTiter-Glo (CTG) luminescent based assay (Promega) is used to assess growth of the cells, as a measurement of the ability of the compounds herein to inhibit Ras signaling in the cells. The cells (e.g., 800 per well) are seeded in their respective culture medium in standard tissue culture-treated 384-well format plates (Falcon #08-772-116) or ultra-low attachment surface 384-well format plates (S-Bio #MS-9384WZ). The day after plating, cells are treated with a dilution series (e.g., a 10 point, 3-fold dilution series) of the compounds herein (e.g., approximately 40 μL final volume per well). Cell viability can be monitored (e.g., approximately 6 days later) according to the manufacturer's recommended instructions, where CellTiter-Glo reagent is added (e.g., approximately 10 μL), vigorously mixed, covered, and placed on a plate shaker (e.g., approximately for 20 min) to ensure sufficient cell lysis prior to assessment of luminescent signal. The IC50 values are determined using the four parameter fit. The resulting IC50 value is a measurement of the ability of the test compound to reduce cell growth of Ras-driven cells (e.g., tumor cell lines) in vitro and/or in vivo.

[7] = system: SW620 cells; experiment: Ras cellular assay, cell proliferation SW620; format: cell-based; conditions: Homo sapiens, SW-620
From the text: as §2

T1 sequence (P01116 1-188 isoform P01116-2 G12D): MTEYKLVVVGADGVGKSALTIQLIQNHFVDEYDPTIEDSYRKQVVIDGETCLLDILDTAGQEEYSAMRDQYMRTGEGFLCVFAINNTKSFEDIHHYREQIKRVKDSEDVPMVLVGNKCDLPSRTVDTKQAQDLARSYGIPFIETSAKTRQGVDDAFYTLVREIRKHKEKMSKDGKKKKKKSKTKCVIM
T3 sequence (P01116 1-188 isoform P01116-2 G12V): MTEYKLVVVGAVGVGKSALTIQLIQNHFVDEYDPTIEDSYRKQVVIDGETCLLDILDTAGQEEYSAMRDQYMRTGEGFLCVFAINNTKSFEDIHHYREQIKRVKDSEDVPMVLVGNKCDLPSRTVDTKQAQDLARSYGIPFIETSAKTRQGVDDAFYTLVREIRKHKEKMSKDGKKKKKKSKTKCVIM
T2 sequence (P01116 1-188 isoform P01116-2 G12S): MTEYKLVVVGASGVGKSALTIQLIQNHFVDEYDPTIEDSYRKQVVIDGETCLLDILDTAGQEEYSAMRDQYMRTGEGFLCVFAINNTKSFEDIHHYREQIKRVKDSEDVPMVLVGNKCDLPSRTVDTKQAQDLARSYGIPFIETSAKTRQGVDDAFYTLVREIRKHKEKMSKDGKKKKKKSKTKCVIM
T4 sequence (P01116 1-188 isoform P01116-2): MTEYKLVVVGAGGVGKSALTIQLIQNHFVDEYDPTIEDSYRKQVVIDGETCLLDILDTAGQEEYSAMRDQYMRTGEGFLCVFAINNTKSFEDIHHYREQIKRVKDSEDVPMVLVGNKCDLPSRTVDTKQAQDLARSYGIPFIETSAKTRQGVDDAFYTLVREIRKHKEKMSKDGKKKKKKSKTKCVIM

Row | Structure (SMILES) | IC50 [1] | IC50 [2] | IC50 [3] | IC50 [4] | IC50 [6] | IC50 [7] | IC50 [5]
1 | CN1c2nc(OC[C@@]34CCCN3C[C@H](F)C4)nc3c(F)c(-c4ccc(F)c5sc(N)c(C#N)c45)c(Cl)c(c23)OCC2CCC21 (stereo partly drawn) [compound 187, 2-amino-4-(6-chloro-4-fluoro-2-(((2R,7aS)-2-fluorotetrahydro-1H-pyrrolizin-7a(5H)-yl)methoxy)-11-methyl-8,8a,9,10,10a,11-hexahydrocyclobuta[6,7][1,5]oxazocino [4,3,2-de]quinazolin-5-yl)-7-fluorobenzo[b]thiophene-3-carbonitrile] | < 5 µM | < 5 µM | < 5 µM | < 5 µM | – | < 5 µM | < 5 µM
2 | N#Cc1c(N)sc2c(F)ccc(-c3c(Cl)c4c5c(nc(OCC67CCCN6C[C@H](F)C7)nc5c3F)N3CCCCC3CCO4)c12 (single isomer, unassigned) [compound 117] | – | < 5 µM | < 5 µM | < 5 µM | < 5 µM | < 5 µM | –
3 | CN1CC2COCC2Oc2c(Cl)c(-c3ccc(F)c4sc(N)c(C#N)c34)c(F)c3nc(OC[C@@]45CCCN4C[C@H](F)C5)nc1c23 (stereo partly drawn) [compound 113, 2-amino-4-(1-chloro-3-fluoro-5-(((2R,7aS)-2-fluorotetrahydro-1H-pyrrolizin-7a(5H)-yl)methoxy)-7-methyl-7,8,8a,9,11,11a-hexahydrofuro[3′,4′:7,8][1,5]oxazocino[4,3,2-de]quinazolin-2-yl)-7-fluorobenzo[b]thiophene-3-carbonitrile] | < 5 µM | < 5 µM | < 5 µM | < 5 µM | – | < 5 µM | < 5 µM
4 | CN(C)CCN1c2nc(OC[C@@]34CCCN3C[C@H](F)C4)nc3c(F)c(-c4ccc(F)c5sc(N)c(C#N)c45)c(Cl)c(c23)OCC2COCC21 (stereo partly drawn) [compound 106, 2-amino-4-(6-chloro-12-(2-(dimethylamino)ethyl)-4-fluoro-2-(((2R,7aS)-2-fluorotetrahydro-1H-pyrrolizin-7a(5H)-yl)methoxy)-8a,9,11a,12-tetrahydro-8H,11H-furo[3′,4′:6,7][1,5]oxazocino[4,3,2-de]quinazolin-5-yl)-7-fluorobenzo[b]thiophene-3-carbonitrile] | < 5 µM | < 5 µM | < 5 µM | < 5 µM | – | < 5 µM | < 5 µM
5 | N#Cc1c(N)sc2c(F)ccc(-c3c(Cl)c4c5c(nc(OC[C@@]67CCCN6C[C@H](F)C7)nc5c3F)N3CCC[C@@H]3CC(CO)O4)c12 (single isomer, unassigned) [compound 177] | < 5 µM | < 5 µM | < 5 µM | < 5 µM | – | < 5 µM | < 5 µM

Continued, in another order:

Row | IC50 [1] | IC50 [2] | IC50 [3] | IC50 [4] | IC50 [6] | IC50 [7] | Structure (SMILES) | IC50 [5]
6 | < 5 µM | < 5 µM | < 5 µM | < 5 µM | < 5 µM | < 5 µM | N#Cc1c(N)sc2c(F)ccc(-c3c(Cl)c4c5c(nc(OCC67CCCN6C[C@H](F)C7)nc5c3F)N3CCC[C@H]3CO4)c12 (stereo partly drawn) [compound 159, 2-amino-4-((12aS)-10-chloro-8-fluoro-6-(((2R)-2-fluorotetrahydro-1H-pyrrolizin-7a(5H)-yl)methoxy)-2,3,12,12a-tetrahydro-1H-pyrrolo[2′,1′:3,4][1,4]oxazepino[5,6,7-de]quinazolin-9-yl)-7-fluorobenzo[b]thiophene-3-carbonitrile] | < 5 µM
7 | – | < 5 µM | < 5 µM | < 5 µM | < 5 µM | < 5 µM | N#Cc1c(N)sc2c(F)ccc(-c3c(Cl)c4c5c(nc(OC[C@@]67CCCN6C[C@H](F)C7)nc5c3F)N3CCC(C#N)CC3CO4)c12 (single isomer, unassigned) [compound 105] | –
8 | – | < 5 µM | < 5 µM | < 5 µM | < 5 µM | < 5 µM | N#Cc1c(N)sc2c(F)ccc(-c3c(Cl)c4c5c(nc(OC[C@@]67CCCN6C[C@H](F)C7)nc5c3F)N3CC5(CCN5C(=O)n5cncn5)CC3CO4)c12 (stereo partly drawn) [compound 131, 2-Amino-4-(10′-chloro-8′-fluoro-6′-(((2R,7aS)-2-fluorotetrahydro-1H-pyrrolizin-7a(5H)-yl)methoxy)-1-(1H-1,2,4-triazole-1-carbonyl)-12′,12a′-dihydro-1′H,3′H-spiro[azetidine-2,2′-pyrrolo[2′,1′:3,4][1,4]oxazepino[5,6,7-de]quinazolin]-9′-yl)-7-fluorobenzo[b]thiophene-3-carbonitrile] | –
9 | < 5 µM | < 5 µM | < 5 µM | < 5 µM | < 5 µM | < 5 µM | N#CCC1CCN2c3nc(OC[C@@]45CCCN4C[C@H](F)C5)nc4c(F)c(-c5ccc(F)c6sc(N)c(C#N)c56)c(Cl)c(c34)OCC2C1 (single isomer, unassigned) [compound 156] | –
10 | < 5 µM | < 5 µM | < 5 µM | < 5 µM | < 5 µM | < 5 µM | N#Cc1c(N)sc2c(F)ccc(-c3c(Cl)c4c5c(nc(OC[C@@]67CCCN6C[C@H](F)C7)nc5c3F)N3CCC[C@@H]3CCO4)c12 [compound 143, 2-amino-4-((13aR)-10-chloro-8-fluoro-6-(((2R,7aS)-2-fluorotetrahydro-1H-pyrrolizin-7a(5H)-yl)methoxy)-1,2,3,12,13,13a-hexahydropyrrolo[1′,2′:5,6][1,5]oxazocino [4,3,2-de]quinazolin-9-yl)-7-fluorobenzo[b]thiophene-3-carbonitrile] | –
11 | – | < 5 µM | < 5 µM | < 5 µM | > 5 µM | < 5 µM | CN1c2nc(OC[C@@]34CCCN3C[C@H](F)C4)nc3c(F)c(-c4ccc(F)c5sc(N)c(C#N)c45)c(Cl)c(c23)OCC2CCCC21 (stereo partly drawn) [compound 110, 2-amino-4-(6-chloro-4-fluoro-2-(((2R,7aS)-2-fluorotetrahydro-1H-pyrrolizin-7a(5H)-yl)methoxy)-12-methyl-8a,9,10,11,11a,12-hexahydro-8H-cyclopenta[6,7][1,5]oxazocino[4,3,2-de]quinazolin-5-yl)-7-fluorobenzo[b]thiophene-3-carbonitrile] | > 5 µM
12 | < 5 µM | < 5 µM | < 5 µM | < 5 µM | – | < 5 µM | N#Cc1c(N)sc2c(F)ccc(-c3c(Cl)c4c5c(nc(OC[C@@]67CCCN6C[C@H](F)C7)nc5c3F)NC3COCC3CO4)c12 (stereo partly drawn) [compound 208, 2-amino-4-(6-chloro-4-fluoro-2-(((2R,7aS)-2-fluorotetrahydro-1H-pyrrolizin-7a(5H)-yl)methoxy)-8a,9,11a,12-tetrahydro-8H,11H-furo[3′,4′:6,7][1,5]oxazocino[4,3,2-de]quinazolin-5-yl)-7-fluorobenzo[b]thiophene-3-carbonitrile] | < 5 µM
